Laboratory results taken from patent US20040010001A1, “Methods and compositions for modulating cell proliferation and cell death” (priority 1999, published 2004).
Like-named read-outs stand apart in the source and are kept apart here.

Tested on: Human prostate PC3 tumor cells
Assay: aFGF/bFGF-induced resistance and reversal by suramin, sulforhodamine B assay
Format: cell-based
Method: The experimental conditions are described briefly below. […] Cell number was measured using the sulforhodamine B assay which measures the total protein concentration. […] The FGF-induced resistance was dependent on the FGF concentrations, with a higher resistance at higher FGF concentrations.

[1] = Homo sapiens, read-out: IC50, Control (drug treatment only, without FGF treatment), No suramin, drug 96 hours
[2] = Homo sapiens, read-out: IC50, aFGF 0.3 ng/ml + bFGF 1 ng/ml, No suramin, FGF pretreatment 96 hours, drug 96 hours
[3] = Homo sapiens, read-out: IC50, aFGF 1 ng/ml + bFGF 3 ng/ml, No suramin, FGF pretreatment 96 hours, drug 96 hours
[4] = read-out: IC50, Control (without FGF treatment), Suramin, 15 μM, drug 96 hours with 15 μM suramin
[5] = read-out: IC50, aFGF 0.3 ng/ml + bFGF 1 ng/ml, With suramin, FGF pretreatment 96 hours, drug 96 hours with 15 micromolar suramin
[6] = read-out: IC50, aFGF 1 ng/ml + bFGF 3 ng/ml, With suramin, FGF pretreatment 96 hours, drug 96 hours with 15 micromolar suramin
[7] = no suramin, relative to control
[8] = Homo sapiens, 96 h, read-out: IC50, Control (drug treatment only, without FGF treatment), No suramin

Row | SMILES | IC50 [1] [µM] | IC50 [2] [µM] | IC50 [3] [µM] | IC50 [4] [µM] | IC50 [5] [µM] | IC50 [6] [µM] | Resistance, Folds, aFGF 0.3 ng/ml + bFGF 1 ng/ml [7] [Folds] | Resistance, Folds, aFGF 1 ng/ml + bFGF 3 ng/ml [7] [Folds] | Resistance, Folds, aFGF 0.3 ng/ml + bFGF 1 ng/ml [Folds] | Resistance, Folds, aFGF 1 ng/ml + bFGF 3 ng/ml [Folds] | IC50 [8] [µM] | IC50 (Homo sapiens, 96 h, read-out: IC50, aFGF 0.3 ng/ml + bFGF 1 ng/ml, No suramin) [µM] | IC50 (Homo sapiens, 96 h, read-out: IC50, aFGF 1 ng/ml + bFGF 3 ng/ml, No suramin) [µM] | IC50 (read-out: IC50, Control (without FGF treatment), Suramin, 15 μM) [µM] | IC50 (read-out: IC50, aFGF 0.3 ng/ml + bFGF 1 ng/ml, With suramin) [µM] | IC50 (read-out: IC50, aFGF 1 ng/ml + bFGF 3 ng/ml, With suramin) [µM]
1 | CO[C@@]12[C@H](COC(N)=O)C3=C(C(=O)C(C)=C(N)C3=O)N1C[C@@H]1N[C@@H]12 [Mitomycin C] | 1.61 | 3.06 | 4.7 | 1.53 | 1.69 | 1.6 | – | – | – | – | – | – | – | – | – | –
2 | O=C(CCBr)N1CCN(C(=O)CCBr)CC1 [Pipobroman] | 136 | 194 | 184 | 94 | 125 | 109 | 1.42 | 1.35 | – | – | – | – | – | – | – | –
3 | COc1cc([C@@H]2c3cc4c(cc3[C@@H](O[C@@H]3O[C@@H]5CO[C@@H](c6cccs6)O[C@H]5[C@H](O)[C@H]3O)[C@H]3COC(=O)[C@H]23)OCO4)cc(OC)c1O [Teniposide] | 0.4 | 1.14 | 1.98 | 0.42 | 0.39 | 0.36 | 2.85 | 4.95 | – | – | – | – | – | – | – | –
4 | COc1cc(NCc2ccc3nc(N)nc(N)c3c2C)cc(OC)c1OC [Trimetrexate] | 0.0336 | 0.054 | 0.0959 | 0.0331 | 0.0306 | 0.0289 | 1.61 | 2.85 | – | – | – | – | – | – | – | –
5 | O=P1(N(CCCl)CCCl)NCCCO1 (centres unmarked) [Cyclophosphamide] | – | – | – | – | – | – | – | – | 2.18 | 3.00 | 0.51 | 1.11 | 1.53 | 0.48 | 0.57 | 0.5
6 | O=C(O)CCCc1ccc(N(CCCl)CCCl)cc1 [Chlorambucil] | 31.9 | 53.5 | 88.3 | 33.1 | 44.4 | 37.6 | 1.67 | 2.77 | – | – | – | – | – | – | – | –
7 | CC[C@]1(O)C[C@@H]2CN(CCc3c([nH]c4ccccc34)[C@@](C(=O)OC)(c3cc4c(cc3OC)N(C)[C@H]3[C@@](O)(C(N)=O)[C@H](O)[C@]5(CC)C=CCN6CC[C@]43[C@@H]65)C2)C1 [Vindesine] | 0.00039 | 0.00053 | 0.00082 | 0.00035 | 0.00037 | 0.00043 | – | – | – | – | – | – | – | – | – | –
8 | Nc1ncn([C@@H]2O[C@H](CO)[C@@H](O)[C@H]2O)c(=O)n1 [5-Azacitidine] | 6.09 | 13.8 | 26.4 | 6.94 | 6.45 | 7.32 | 2.27 | 4.33 | – | – | – | – | – | – | – | –
9 | N[C@@H](Cc1ccc(N(CCCl)CCCl)cc1)C(=O)O [Melphalan] | 4.19 | 12.8 | 24.6 | 4.02 | 4.48 | 3.97 | 3.07 | 5.87 | – | – | – | – | – | – | – | –
10 | OC[C@H]1O[C@@H](n2cnc3c2NC=NC[C@H]3O)C[C@@H]1O [Pentostatin] | – | – | – | – | – | – | – | – | – | – | 336 | – | – | – | – | –
11 | CC(=O)O[C@@]12CO[C@@H]1C[C@H](O)[C@@]1(C)C(=O)[C@H](O)C3=C(C)[C@@H](OC(=O)[C@H](O)[C@@H](NC(=O)OC(C)(C)C)c4ccccc4)C[C@@](O)([C@@H](OC(=O)c4ccccc4)[C@H]21)C3(C)C [Taxotere] | 0.00229 | – | – | 0.00202 | – | – | – | – | – | – | – | – | – | – | – | –
12 | CS(=O)(=O)OCCCCOS(C)(=O)=O [Busulfan] | 86.2 | – | – | 89.2 | – | – | 1.14 | 1.48 | – | – | – | – | – | – | – | –
13 | O=C1NC(=S)NC(=O)C1C(=O)Nc1ccccc1 [Merbarone] | 23 | 46.7 | 80.8 | 28.6 | 24.9 | 29.4 | 1.67 | 2.89 | – | – | – | – | – | – | – | –
